Reference: PMC4624854 (Frontiers in Molecular Neuroscience, 2015)

How the values were obtained:
heteromeric α1/β GlyRs = target: T1, heteromeric α1/β GlyRs (Homo sapiens, UniProt P23415); experiment: whole-cell patch-clamp of Igly, heteromeric α1/β GlyRs in CHO cells; assay type: cell-based; conditions: for increase of currents induced by subsaturating glycine: 25 μM ginkgolic acid, n = 5
T1 construct: expressed in transfected cells; host or cells: CHO-K1
Protocol: (§1) For electrophysiological analysis cells were transfected with cDNAs of different receptor-operated channels. One day before the transfection, cells were plated on the coverslips (12–14 mm in diameter), which were placed inside 35-mm cell culture dishes with 2 ml of medium. CHO-K1 cells were transfected with the following cDNAs encoding GlyR subunits: human α1 (1 μg/1 μl), α2 (2 μg/1 μl), α3-long (2 μg/1 μl), and β (in combination with α1 or α2 subunits with the ratio of cDNAs concentrations 1α:5β); or with a mixture of cDNAs encoding GABAA receptors: α1-GFP (1 μg/μl), β2 (1 μg/μl), γ2 (1 μg/μl) using the Lipofectamine 2000 transfection protocol (Life Technology, USA). To facilitate identification of expressing cells, in the case of GlyR, green fluorescent protein (GFP, 0.5 μg/μl) was added to the transfection medium. Visualization of GABAAR expression was achieved by using the α1-GFP construct ([Bueno et al., 1998]). Three hours after the initial exposure of the cells to the cDNAs, a fresh solution replaced the old one. […] Electrophysiological recordings were performed on fluorescent cells 24–72 h after transfection.
Whole-cell recordings were performed at room temperature (20–25 °C) using an EPC-9 amplifier (HEKA Elektronik, Germany). Cells were continuously superfused with external solution containing (mM): NaCl 140, CaCl2 2, KCl 2.8, MgCl2 4, HEPES 20, glucose 10; pH 7.4; 320–330 mOsm. Two intracellular solutions were used for filling recording patch pipettes. First, mainly used, ‘CsCl solution’ contained (mM): CsCl 140, CaCl2 6, MgCl2 2, MgATP 2, NaGTP 0.4, HEPES/CsOH 10, BAPTA/KOH 20; pH 7.3; 290 mOsm. In the experiments performed with CsCl intracellular solution, ionic currents were recorded at holding potential (Vh) –30 mV. […] Two parallel rectangular tubes (100 μm × 100 μm) were positioned 40–50 μm above the recorded cell. The movement of the tubes was controlled by a computer-driven fast exchange system (SF 77A Perfusion Fast-Step, Warner, USA) allowing a 10–90% solution exchange in 3–5 ms, as measured by open electrode controls (1/10 external solution/water). […]

α2 GlyRs = target: T2, α2 GlyRs (Homo sapiens, UniProt P23416); experiment: whole-cell patch-clamp of Igly, homomeric α2 GlyRs in CHO cells; assay type: cell-based
T2 construct: expressed in transfected cells; host or cells: CHO-K1
T2 sequence (P23416 28-452): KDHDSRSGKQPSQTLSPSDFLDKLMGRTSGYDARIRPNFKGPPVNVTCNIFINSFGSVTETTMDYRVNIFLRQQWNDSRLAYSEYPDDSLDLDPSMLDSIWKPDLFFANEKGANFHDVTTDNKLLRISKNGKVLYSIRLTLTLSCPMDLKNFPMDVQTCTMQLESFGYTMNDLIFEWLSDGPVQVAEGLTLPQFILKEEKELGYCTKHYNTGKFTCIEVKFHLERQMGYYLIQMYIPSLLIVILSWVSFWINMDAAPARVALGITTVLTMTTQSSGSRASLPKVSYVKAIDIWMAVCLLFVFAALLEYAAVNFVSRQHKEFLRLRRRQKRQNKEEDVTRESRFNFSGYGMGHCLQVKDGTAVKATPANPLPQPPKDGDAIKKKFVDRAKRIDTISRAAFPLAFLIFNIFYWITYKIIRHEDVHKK
Protocol: (§2) For electrophysiological analysis cells were transfected with cDNAs of different receptor-operated channels. One day before the transfection, cells were plated on the coverslips (12–14 mm in diameter), which were placed inside 35-mm cell culture dishes with 2 ml of medium. CHO-K1 cells were transfected with the following cDNAs encoding GlyR subunits: human α1 (1 μg/1 μl), α2 (2 μg/1 μl), α3-long (2 μg/1 μl), and β (in combination with α1 or α2 subunits with the ratio of cDNAs concentrations 1α:5β); or with a mixture of cDNAs encoding GABAA receptors: α1-GFP (1 μg/μl), β2 (1 μg/μl), γ2 (1 μg/μl) using the Lipofectamine 2000 transfection protocol (Life Technology, USA). […]
(§3) Whole-cell recordings were performed at room temperature (20–25 °C) using an EPC-9 amplifier (HEKA Elektronik, Germany). […] In the experiments performed with CsCl intracellular solution, ionic currents were recorded at holding potential (Vh) –30 mV. […] Two parallel rectangular tubes (100 μm × 100 μm) were positioned 40–50 μm above the recorded cell. The movement of the tubes was controlled by a computer-driven fast exchange system (SF 77A Perfusion Fast-Step, Warner, USA) allowing a 10–90% solution exchange in 3–5 ms, as measured by open electrode controls (1/10 external solution/water). […]
(§4) All electrophysiological results were analyzed using PatchMaster (HEKA Electronik, Germany) software. […]

[1] = target: T3, α3 GlyR (α3L splice variant) (Homo sapiens, UniProt O75311); experiment: whole-cell patch-clamp of Igly, α3-long (α3L) GlyRs in CHO cells; assay type: cell-based
T3 construct: expressed in transfected cells; host or cells: CHO-K1
T3 sequence (O75311 34-464): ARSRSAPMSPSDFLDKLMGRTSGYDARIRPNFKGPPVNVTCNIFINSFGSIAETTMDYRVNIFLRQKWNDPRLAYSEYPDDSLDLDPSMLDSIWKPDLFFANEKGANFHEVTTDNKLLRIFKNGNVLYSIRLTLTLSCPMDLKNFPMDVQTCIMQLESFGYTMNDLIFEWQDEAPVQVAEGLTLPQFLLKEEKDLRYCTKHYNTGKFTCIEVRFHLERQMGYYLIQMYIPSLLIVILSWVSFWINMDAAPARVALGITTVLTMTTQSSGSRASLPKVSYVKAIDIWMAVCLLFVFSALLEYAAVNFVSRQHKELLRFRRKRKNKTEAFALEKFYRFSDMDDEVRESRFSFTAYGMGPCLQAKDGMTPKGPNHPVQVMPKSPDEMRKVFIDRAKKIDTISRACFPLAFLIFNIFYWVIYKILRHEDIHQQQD
Protocol: as §1
(§5) Whole-cell recordings were performed at room temperature (20–25 °C) using an EPC-9 amplifier (HEKA Elektronik, Germany). Cells were continuously superfused with external solution containing (mM): NaCl 140, CaCl2 2, KCl 2.8, MgCl2 4, HEPES 20, glucose 10; pH 7.4; 320–330 mOsm. Two intracellular solutions were used for filling recording patch pipettes. First, mainly used, ‘CsCl solution’ contained (mM): CsCl 140, CaCl2 6, MgCl2 2, MgATP 2, NaGTP 0.4, HEPES/CsOH 10, BAPTA/KOH 20; pH 7.3; 290 mOsm. In the experiments performed with CsCl intracellular solution, ionic currents were recorded at holding potential (Vh) –30 mV. In some experiments, ‘Kgluconate solution’ was used, in which CsCl 140 mM was replaced by KCl 20 mM + Kgluconate 120 mM. Recordings with this solutions were performed at Vh = 0 mV. Pipettes were pulled from borosilicate glass capillaries (Harvard Apparatus Ltd, USA) and had resistances of 5–10 MOhms. For rapid replacement of solutions, the fast application system was used in this study. Two parallel rectangular tubes (100 μm × 100 μm) were positioned 40–50 μm above the recorded cell. The movement of the tubes was controlled by a computer-driven fast exchange system (SF 77A Perfusion Fast-Step, Warner, USA) allowing a 10–90% solution exchange in 3–5 ms, as measured by open electrode controls (1/10 external solution/water).
In all experiments, the duration of the pulses of agonist was 2 s. The duration of ginkgolic acid application varied from 20 s to 6 min. Cells with low input resistance (<150 MOhms) and a rapid run-down (>30% with repetitive application) were excluded from analysis.
(§6) All electrophysiological results were analyzed using PatchMaster (HEKA Electronik, Germany) software. Dose–response curves were constructed by fitting values obtained at different concentrations, after normalization.

GABAAR α1/β2/γ2 = GABAAR α1/β2/γ2 (Homo sapiens, UniProt P14867+P47870); experiment: whole-cell patch-clamp of GABA-evoked currents, α1/β2/γ2 GABAARs in CHO cells; assay type: cell-based
Protocol: as §1
Whole-cell recordings were performed at room temperature (20–25 °C) using an EPC-9 amplifier (HEKA Elektronik, Germany). Cells were continuously superfused with external solution containing (mM): NaCl 140, CaCl2 2, KCl 2.8, MgCl2 4, HEPES 20, glucose 10; pH 7.4; 320–330 mOsm. Two intracellular solutions were used for filling recording patch pipettes. […] In the experiments performed with CsCl intracellular solution, ionic currents were recorded at holding potential (Vh) –30 mV. […] Two parallel rectangular tubes (100 μm × 100 μm) were positioned 40–50 μm above the recorded cell. The movement of the tubes was controlled by a computer-driven fast exchange system (SF 77A Perfusion Fast-Step, Warner, USA) allowing a 10–90% solution exchange in 3–5 ms, as measured by open electrode controls (1/10 external solution/water). […]
as §4

[2] = test system: protein phosphatase 2C (PP2C); parameters: method as in Ahlemeyer et al., 2001; conditions: ref Ahlemeyer et al., 2001; cited from earlier work
α1 GlyR [3] = target: T4, α1 GlyR (Homo sapiens, UniProt P23415); experiment: whole-cell patch-clamp of Igly, α1 GlyR expressed in mouse neuroblastoma (N2a) cells; assay type: cell-based; parameters: expressed in transfected cells; host or cells: mouse neuroblastoma N2a; conditions: 3 μM ginkgolic acid, first two applications (Figure 2B)
T4 sequence (P23415 29-457): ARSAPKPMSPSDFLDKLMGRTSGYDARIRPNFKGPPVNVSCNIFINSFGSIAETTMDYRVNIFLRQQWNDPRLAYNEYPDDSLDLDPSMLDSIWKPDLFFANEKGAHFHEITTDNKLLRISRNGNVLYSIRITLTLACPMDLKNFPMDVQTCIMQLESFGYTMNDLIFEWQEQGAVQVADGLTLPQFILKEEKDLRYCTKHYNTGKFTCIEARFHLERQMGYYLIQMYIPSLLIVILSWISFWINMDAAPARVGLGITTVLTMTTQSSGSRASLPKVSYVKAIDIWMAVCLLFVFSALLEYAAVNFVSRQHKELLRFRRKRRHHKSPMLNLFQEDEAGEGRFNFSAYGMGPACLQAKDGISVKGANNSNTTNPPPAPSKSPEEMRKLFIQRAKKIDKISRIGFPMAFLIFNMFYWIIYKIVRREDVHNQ
Protocol: as §2, §3

α1 GlyR [4] = target: T4, α1 GlyR; experiment: whole-cell patch-clamp of glycine-induced currents (Igly), homomeric α1 GlyRs expressed in CHO cells; conditions: for average Igly (mean current amplitude) after ginkgolic acid: 2 min, control 291 ± 65
Protocol: The experiments were carried out on cultured Chinese hamster ovary (CHO-K1) cells obtained from the American Type Tissue Culture Collection (ATCC, Molsheim, France) and on mouse neuroblastoma cells (N2a) cells that were maintained in culture conditions as previously described ([Waseem et al., 2010]; [Mukhtarov et al., 2013]).
as §1, §5
In all experiments, the duration of the pulses of agonist was 2 s. […] Cells with low input resistance (<150 MOhms) and a rapid run-down (>30% with repetitive application) were excluded from analysis.
as §6
where I is the normalized current amplitude induced by the agonist at concentration [A], nH is the Hill coefficient and EC50 is the concentration at which a half-maximum response was induced.
Paired and unpaired Student’s t-tests were used for statistical analysis. The data are expressed as the means ± SEM.

α1 GlyR [5] = test system: α1 GlyR; parameters: method as in Raafat et al., 2010; conditions: non-competitive inhibition; ref Raafat et al., 2010; cited from earlier work
[6] = test system: GlyR subunits α1, α2, α3; heteromeric vs homomeric GlyRs; parameters: method as in Kondratskaya et al., 2005; conditions: ref Kondratskaya et al., 2005; cited from earlier work
α1 GlyR subunits = test system: α1 GlyR subunits; parameters: method as in Xiong et al., 2011; conditions: ref Xiong et al., 2011; cited from earlier work
α3 GlyR subunits = test system: α3 GlyR subunits; parameters: method as in Xiong et al., 2011; conditions: ref Xiong et al., 2011; cited from earlier work

Chain of GABAAR α1/β2/γ2 (P14867 28-456): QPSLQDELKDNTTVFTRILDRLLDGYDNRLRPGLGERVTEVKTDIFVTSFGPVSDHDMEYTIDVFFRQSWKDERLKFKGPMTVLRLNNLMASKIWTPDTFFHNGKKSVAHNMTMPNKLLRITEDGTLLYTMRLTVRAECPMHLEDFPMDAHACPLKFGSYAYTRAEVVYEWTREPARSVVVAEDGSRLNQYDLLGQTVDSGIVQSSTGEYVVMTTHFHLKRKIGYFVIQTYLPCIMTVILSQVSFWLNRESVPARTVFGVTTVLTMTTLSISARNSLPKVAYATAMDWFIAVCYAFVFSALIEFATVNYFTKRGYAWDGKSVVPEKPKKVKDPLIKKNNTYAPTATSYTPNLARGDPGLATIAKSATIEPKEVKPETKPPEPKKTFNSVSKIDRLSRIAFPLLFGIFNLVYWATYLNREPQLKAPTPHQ
Chain of GABAAR α1/β2/γ2 (P47870 26-512): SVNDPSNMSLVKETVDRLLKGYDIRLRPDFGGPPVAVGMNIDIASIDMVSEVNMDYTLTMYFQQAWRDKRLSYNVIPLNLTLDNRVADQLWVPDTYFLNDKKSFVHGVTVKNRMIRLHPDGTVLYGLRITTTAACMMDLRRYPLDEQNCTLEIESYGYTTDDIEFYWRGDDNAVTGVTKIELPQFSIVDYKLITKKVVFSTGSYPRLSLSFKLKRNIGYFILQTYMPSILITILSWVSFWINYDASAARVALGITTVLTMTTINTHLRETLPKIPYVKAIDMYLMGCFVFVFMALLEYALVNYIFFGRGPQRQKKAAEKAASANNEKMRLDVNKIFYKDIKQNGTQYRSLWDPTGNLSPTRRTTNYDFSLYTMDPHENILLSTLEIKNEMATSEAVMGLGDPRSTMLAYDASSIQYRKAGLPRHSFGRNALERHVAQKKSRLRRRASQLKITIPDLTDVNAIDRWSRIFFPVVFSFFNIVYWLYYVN
Chain of GABAAR α1/β2/γ2 (P18507 40-475 partner): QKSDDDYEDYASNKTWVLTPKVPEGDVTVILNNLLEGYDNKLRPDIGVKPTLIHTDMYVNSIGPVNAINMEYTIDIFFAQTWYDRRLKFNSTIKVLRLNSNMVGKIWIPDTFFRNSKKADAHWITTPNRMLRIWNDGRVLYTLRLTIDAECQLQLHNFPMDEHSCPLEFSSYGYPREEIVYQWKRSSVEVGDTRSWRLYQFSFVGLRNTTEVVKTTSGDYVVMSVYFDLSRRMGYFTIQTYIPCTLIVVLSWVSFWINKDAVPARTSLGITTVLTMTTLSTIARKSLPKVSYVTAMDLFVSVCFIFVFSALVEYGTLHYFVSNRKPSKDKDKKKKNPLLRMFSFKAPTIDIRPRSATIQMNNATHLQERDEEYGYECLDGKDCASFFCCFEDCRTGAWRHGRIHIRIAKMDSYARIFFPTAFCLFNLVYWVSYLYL
T1 sequence (P48167 23-497 partner, one chain of several): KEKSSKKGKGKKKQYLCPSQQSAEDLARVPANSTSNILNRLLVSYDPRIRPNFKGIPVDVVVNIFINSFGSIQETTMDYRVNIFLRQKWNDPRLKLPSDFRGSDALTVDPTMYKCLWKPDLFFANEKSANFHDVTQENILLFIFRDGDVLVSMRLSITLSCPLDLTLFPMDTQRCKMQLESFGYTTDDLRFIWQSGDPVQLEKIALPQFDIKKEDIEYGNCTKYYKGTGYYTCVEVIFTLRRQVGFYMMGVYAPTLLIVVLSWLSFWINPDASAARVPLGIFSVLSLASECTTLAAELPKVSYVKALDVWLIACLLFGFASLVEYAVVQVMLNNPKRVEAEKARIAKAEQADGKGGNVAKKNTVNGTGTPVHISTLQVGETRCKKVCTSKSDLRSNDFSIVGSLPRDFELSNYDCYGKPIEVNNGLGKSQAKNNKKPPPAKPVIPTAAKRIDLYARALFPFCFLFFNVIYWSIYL

For CCCCCC/C=C\CCCCCCCc1cccc(O)c1C(=O)O [ginkgolic acid], the “increase of currents induced by subsaturating glycine” value (heteromeric α1/β GlyRs) was 82 ± 39%, the “increase of currents induced by subsaturating glycine” value (heteromeric α1/β GlyRs; listed as GA) was 82%±39 and the “effect on currents induced by saturated glycine” value (heteromeric α1/β GlyRs; glycine 0.3–1 mM) was “did not increase”. The “effect on Igly at 1 μM” value (α2 GlyRs; 1 μM ginkgolic acid) was “not detectable”, the “effect on the amplitude of Igly at low concentrations” value (α2 GlyRs; ginkgolic acid <10 μM) was “no effect” and the “overall effect on the amplitude of whole-cell currents” value ([1]; 25 μM ginkgolic acid) was “negligible”. For the same compound, the “change of current induced by 100 μM glycine, one cell with weak potentiation” value ([1]; 25 μM ginkgolic acid, 20–40 sec pre-treatment, one cell) was “+4%”, the “mean current in the presence of ginkgolic acid” value ([1]; 25 μM ginkgolic acid, glycine 100 μM, n = 6, control 338 ± 101) was 318 ± 96 pA and the “mean current after washout of ginkgolic acid” value ([1]; glycine 100 μM, n = 6, control 338 ± 101) was 326 ± 113 pA. For the same compound, the “changes in GABA-evoked currents” value (GABAAR α1/β2/γ2; 25 μM ginkgolic acid, 20–40 s, GABA 1 μM (EC10) or 10 μM (EC50)) was “did not observe any changes”, the “mean current after ginkgolic acid application” value (GABAAR α1/β2/γ2; 25 μM ginkgolic acid, GABA 10 μM, n = 16, control 235 ± 65) was 228 ± 63 pA and the “mean current after washout of ginkgolic acid” value (GABAAR α1/β2/γ2; GABA 10 μM, n = 16, control 235 ± 65) was 232 ± 65 pA. The “concentrations at which effects on PP2C were caused” value [2] was greater than 100 µM, the “increase in Igly in N2a cells” value (α1 GlyR [3]) was “more than twofold increase” and the “threshold of potentiation of α1 GlyR” value (α1 GlyR [4]) was roughly 30 nM. The “time of treatment after which potentiation was observed (onset)” value (α1 GlyR [4]; 30 nM ginkgolic acid, glycine 30 μM) was 2 to 3 min, the “augmentation of Igly after 20–30 s of pre-treatment” value (α1 GlyR [4]; 100 nM ginkgolic acid, 20–30 s, n = 8) was 26 ± 8% and the “potentiation of Igly following the first 40 s” value (α1 GlyR [4]; 100 nM ginkgolic acid, 40 s, glycine 30 μM, one cell (Figure 2A)) was 54%. The “average Igly (mean current amplitude) after ginkgolic acid” value (α1 GlyR [4]; 100 nM ginkgolic acid, glycine 30 μM, n = 8) was 467 ± 124 pA, the “average Igly (mean current amplitude) after ginkgolic acid” value (α1 GlyR [4]; 100 nM ginkgolic acid, glycine 30 μM, n = 8, listed as GA) was 467±124 pA and the “degree of potentiation of Igly” value (α1 GlyR [4]; 100 nM ginkgolic acid, 2 min pre-application, glycine 30 μM, n = 8 cells (range in different cells and mean ± SEM)) was 51 ± 10%. The “enhancement of Igly after 30 s” value (α1 GlyR [4]; 3 μM ginkgolic acid, 30 s, glycine 30 μM) was greater than 30% and the “effect on amplitudes of currents induced by saturating glycine” value (α1 GlyR [4]; glycine 0.3–1 mM) was “not affected”.

NCC(=O)O [glycine, reference compound] gave an EC50 ([1]; read-out: EC50 to glycine in control, n = 11) of 142 ± 9.8 µM.

For O=c1c(O)c(-c2ccc(O)c(O)c2)oc2cc(O)cc(O)c12 [Quercetin], the IC50 (α1 GlyR [5]) is listed as roughly 45 µM.

In the case of ginkgolide B, the “preference for α1 vs. α2 GlyR subunits” value [6] is listed as “about 5 fold” and the “preference for α1 vs. α3 GlyR subunits” value [6] is listed as roughly 3 fold.

For CCCCCc1cc(O)c2c(c1)OC(C)(C)C1CCC(C)=CC21 (centres unmarked) [THC, Δ^9-tetrahydrocannabiol], the “concentration from which potentiation begins” value (α1 GlyR subunits) is given as no less than 30 nM and the “concentration from which potentiation begins” value (α3 GlyR subunits) is given as no less than 30 nM.
